The source of these data is ChEMBL document CHEMBL1201862, “PubChem BioAssay data set” (2004).

SMILES strings stand for the structures.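 Each compound was tested at five concentrations against cells in 96-well plates for 48 hours. GI50 is the concentration that inhibits growth by half.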 Activity calls are given as the source filed them. Rule as the data show it: active = GI50 up to about 1.1 µM and inactive = higher.

Common to all, as to assay: NCI tumour cell line growth inhibition, 48 h
The test system of test [1] is SR.
Test [2] relates to U-251.
Test [3] relates to MDA-N.
Test [4] relates to SNB-75.
For test [5], the system named is MDA-MB-435.
Test [6] deals with SW-620.
Test [7] concerns 786-0.
For test [8], the system named is UO-31.
Test [9] has as its system NCI/ADR-RES.
Test [10] has as its system ACHN.
Test [11] concerns SK-MEL-2.
The subject of test [12] is HOP-62.
The test system of test [13] is MCF7.
For test [14], the system named is OVCAR-3.
Test [15] concerns K562.
The test system of test [16] is TK-10.
The test system of test [17] is COLO 205.
The subject of test [18] is UACC-257.
The test system of test [19] is RPMI-8226.
For test [20], the system named is A498.

Consider `CC(=O)OC12OC(C)(C3C(=O)N(c4ccccc4)C(=O)C31)N(c1ccccc1)C2=O` (stereo unspecified), for which the GI50 in [1], in test [2], in test [3], in [4], in [5] and in [6] was > 100 µM (inactive) each time. Also, the GI50 in [7], in test [8], in test [9], in test [10], in [11] and in [12] was > 100 µM (inactive) each time. Also, the GI50 in test [13] was > 100 µM (inactive); in [14], > 100 µM (inactive); in test [15], > 100 µM (inactive); in test [16], > 100 µM (inactive); in test [17], > 100 µM (inactive); in test [18], 16.7 µM (inactive).
Take `Cc1cccc2cc3c(ccc4ccccc43)c[n+]12`: the GI50 in test [19] was 22.5 µM (inactive); in test [1], 6.43 µM (inactive); in test [2] it was 2.99 µM (inactive); in [3], 37.9 µM (inactive); in test [4], 6.56 µM (inactive); in test [5], 33.4 µM (inactive). For the same compound, the GI50 in test [6] is 21.3 µM (inactive); in test [7] it was 18 µM (inactive); in test [8] it was 30.1 µM (inactive); in test [9] it was > 100 µM (inactive); in test [10], 65.3 µM (inactive); in test [11] it was 20.3 µM (inactive). The GI50 in [12] was 7.89 µM (inactive); in test [13], 13.5 µM (inactive); in test [14], 2.06 µM (inactive); in test [15], 30.1 µM (inactive); in test [16], > 100 µM (inactive); in test [17], 13.3 µM (inactive). Moreover, in test [18], the GI50 was 14 µM (inactive).
Regarding `Cn1ccnc1SC(F)(F)c1nc2ccccc2o1`, the GI50 in test [19] is > 100 µM (inactive); in test [2], > 100 µM (inactive); in [3] it was > 100 µM (inactive); in test [4], 0.043 µM (active); in [5], > 100 µM (inactive); in test [6], > 100 µM (inactive). Besides, the GI50 in test [7], in test [8], in test [20], in test [9], in test [10] and in [11] was > 100 µM (inactive) throughout. In addition, the GI50 in test [12], in test [13], in test [14], in test [15], in [16] and in test [17] was > 100 µM (inactive) each time. The GI50 in test [18] is > 100 µM (inactive).
Take `O=C(O)CNc1ccc(C(=O)O)cc1`: the GI50 in [19], in test [2], in test [3], in test [4], in test [5] and in test [6] was > 100 µM (inactive) throughout. In addition, the GI50 in [7], in [8], in test [20], in test [9], in [10] and in [11] was > 100 µM (inactive) each time. In addition, the GI50 in [12], in test [13], in test [14], in [15], in test [16] and in test [17] was > 100 µM (inactive) each time. Moreover, the GI50 in test [18] is > 100 µM (inactive).
With `Cc1c2c(nc3ccccc13)C(=O)c1cccnc1C2=O`, the GI50 is 17 µM (inactive) in test [19]; 6.5 µM (inactive) in test [1]; 10.8 µM (inactive) in test [2]; 1.77 µM (inactive) in [3]; 11.1 µM (inactive) in test [4]; 1.79 µM (inactive) in test [5]. The GI50 was 12.1 µM (inactive) in test [6]; 33.3 µM (inactive) in test [7]; 15.2 µM (inactive) in test [8]; 27.2 µM (inactive) in [9]; 10.6 µM (inactive) in [10]; 20.6 µM (inactive) in test [12]. Besides, the GI50 in test [13] was 4.89 µM (inactive); in test [14], 11.7 µM (inactive); in test [15], 20 µM (inactive); in test [16], > 100 µM (inactive); in test [17], 17.1 µM (inactive); in test [18], 6.97 µM (inactive).
For the compound `COC(=O)/C(=C\Nc1cccc(C)n1)S(=O)(=O)c1ccc(C)cc1`, the GI50 was > 100 µM (inactive) in [19]; 61.2 µM (inactive) in test [1]; 73.3 µM (inactive) in test [2]; 30.1 µM (inactive) in test [3]; 71 µM (inactive) in test [4]; 39 µM (inactive) in test [5]. Besides, the GI50 in [6] was 27.1 µM (inactive); in [7] it was > 100 µM (inactive); in [8], 36.4 µM (inactive); in test [9], 76.4 µM (inactive); in [10], > 100 µM (inactive); in test [11] it was 33.4 µM (inactive). For the same compound, the GI50 was > 100 µM (inactive) in test [12]; 68.2 µM (inactive) in test [13]; 86.3 µM (inactive) in test [14]; 21.1 µM (inactive) in [15]; 96.2 µM (inactive) in [16]; 22.2 µM (inactive) in test [17]. For the same compound, the GI50 in test [18] was 69.2 µM (inactive).
On to `CSc1nc(Cl)c(Br)c(Nc2cnc(O)nc2O)n1`, for which the GI50 in test [19] was 28.3 µM (inactive); in [2], 20.2 µM (inactive); in [3] it was 23 µM (inactive); in [4], 17.7 µM (inactive); in [5], 27.5 µM (inactive); in test [6], 27.1 µM (inactive). The GI50 in test [7] was 13.4 µM (inactive); in [8], 20.3 µM (inactive); in test [20], 11.6 µM (inactive); in test [9], 19.7 µM (inactive); in test [10], 18.7 µM (inactive); in test [11], 17.5 µM (inactive). The GI50 in test [12] is 16.9 µM (inactive); in test [13] it was 38 µM (inactive); in [14], 14.6 µM (inactive); in [15], 26.9 µM (inactive); in test [16], 14.7 µM (inactive); in test [17], 16.8 µM (inactive). Moreover, the GI50 in test [18] was 19.2 µM (inactive).
Regarding `COC(=O)C1CC23C4=C(CCC41)CCC1CN4CC(C)C(CC(OC(C)=O)C12COC(C)=O)C43O` (stereo unspecified), the GI50 in test [19], in [2], in test [3], in [4], in test [5] and in test [6] was > 100 µM (inactive) each time. The GI50 in test [7], in test [8], in test [20], in [9], in test [10] and in test [11] was > 100 µM (inactive) each time. The GI50 in test [12], in test [13], in test [14], in test [15], in test [16] and in test [17] was > 100 µM (inactive) each time. Besides, the GI50 in [18] is > 100 µM (inactive).
As to `CCC1C(=O)OCc2c1cc1n(c2=O)Cc2cc3ccccc3nc2-1` (stereo unspecified), the GI50 was 12.4 µM (inactive) in [19]; 3.53 µM (inactive) in [2]; 45.6 µM (inactive) in [3]; 1.96 µM (inactive) in test [4]; 44.3 µM (inactive) in [5]; 7.16 µM (inactive) in test [6]. Moreover, the GI50 in test [7] is 3.23 µM (inactive); in test [8], 2.37 µM (inactive); in test [20] it was 10.7 µM (inactive); in test [9], 8.43 µM (inactive); in [10], 3.28 µM (inactive); in [11], > 100 µM (inactive). Besides, the GI50 is 2.08 µM (inactive) in test [12]; 1.59 µM (inactive) in test [13]; > 100 µM (inactive) in [14]; 18.1 µM (inactive) in test [15]; > 100 µM (inactive) in [16]; 72.3 µM (inactive) in [17]. Also, the GI50 in test [18] is 50.7 µM (inactive).
For the compound `CCN1/C(=C/C#C/C(C)=C\c2sc3ccc(Cl)cc3[n+]2CC)Sc2ccc(Cl)cc21`, the GI50 in test [19] is 1.67 µM (inactive); in [1] it was 0.668 µM (active); in [2], 3.3 µM (inactive); in test [3], 3.13 µM (inactive); in [4] it was 2.61 µM (inactive); in test [5], 2.94 µM (inactive). Further, the GI50 in test [6] is 2.43 µM (inactive); in [7], 3.1 µM (inactive); in test [8], 3.85 µM (inactive); in [9], 15.7 µM (inactive); in [10] it was 3.38 µM (inactive); in test [11], 1.98 µM (inactive). Further, the GI50 in test [12] is 4.88 µM (inactive); in [13] it was 3.73 µM (inactive); in test [15], 0.552 µM (active); in test [16], 4.28 µM (inactive); in test [17], 1.66 µM (inactive); in test [18] it was 3.34 µM (inactive).
As to `N#CC(Cc1ccccc1)N(CCC1=CCCCC1)C(c1ccccc1)c1ccccc1` (stereo unspecified), the GI50 in [19] is 33.3 µM (inactive); in [2] it was 69.5 µM (inactive); in [3] it was 24.4 µM (inactive); in test [4], > 100 µM (inactive); in test [5] it was 41.1 µM (inactive); in test [6] it was 38.9 µM (inactive). The GI50 in test [7] is > 100 µM (inactive); in test [8], 50.6 µM (inactive); in test [20] it was > 100 µM (inactive); in test [9] it was > 100 µM (inactive); in test [10], > 100 µM (inactive); in [11], > 100 µM (inactive). The GI50 in test [12] is > 100 µM (inactive); in test [13], 42.4 µM (inactive); in test [14], > 100 µM (inactive); in test [15], 80.4 µM (inactive); in test [16], > 100 µM (inactive); in test [17], 35.2 µM (inactive). Besides, in [18], the GI50 is 43 µM (inactive).
